Measurements taken from US20060223996A1, “IL-12 modulatory compounds” (Synta Pharmaceuticals Corp., priority 2004, published 2006).
pIC50: −log10 of the molar value.

What follows are compounds tested on IL-12 (assay: Human in vitro assay: inhibition of IL-12 production in IFNγ/LPS- or IFNγ/SAC-stimulated human PBMC or THP-1 cells (ELISA)). Settings: read-out: IC50 Range (representative in vitro IC50 data).
Assay type: cell-based
In short: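 PBMC (5×10^5 cells/well) primed with IFNγ 30 U/mL for 22 h then LPS 1 μg/mL, or IFNγ 100 U/mL then SAC 0.01%; THP-1 primed with IFNγ 100 U/mL for 22 h then SAC 0.025%, with compound in 0.25% DMSO. Supernatant IL-12 p70/p40 measured by sandwich ELISA after 18 h; IC50 derived; viability by MTS.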

| SMILES | pIC50 |
| --- | --- |
| O=C(Nc1cc(OCCN2CCOCC2)nc(N2CCOCC2)n1)Nc1nc2ccc(Cl)cc2o1 [Compound 135, 1-(6-Chloro-benzooxazol-2-yl)-3-[2-morpholin-4-yl-6-(2-morpholin-4-yl-ethoxy)-pyrimidin-4-yl]-urea] | > 6.00 |
| O=C(Nc1cc(OCCN2CCOCC2)nc(N2CCOCC2)n1)Nc1nc2ccc(Cl)cc2s1 [Compound 139, 1-(6-Chloro-benzothiazol-2-yl)-3-[2-morpholin-4-yl-6-(2-morpholin-4-yl-ethoxy)-pyrimidin-4-yl]-urea] | > 6.00 |
| O=C(Nc1cc(OCCN2CCOCC2)nc(N2CCOCC2)n1)Nc1cccc2ncccc12 [Compound 140, 1-[2-Morpholin-4-yl-6-(2-morpholin-4-yl-ethoxy)-pyrimidin-4-yl]-3-quinolin-5-yl-urea] | ≤ 6.00 |
| O=C(Nc1cc(OCCN2CCOCC2)nc(N2CCOCC2)n1)Nc1nnc(C2CC2)s1 [Compound 141, 1-(5-Cyclopropyl-[1,3,4]thiadiazol-2-yl)-3-[2-morpholin-4-yl-6-(2-morpholin-4-yl-ethoxy)-pyrimidin-4-yl]-urea] | ≤ 6.00 |
| Cc1ccc(-c2csc(NC(=O)Nc3cc(OCCN4CCOCC4)nc(N4CCOCC4)n3)n2)cc1 [Compound 142, 1-[2-Morpholin-4-yl-6-(2-morpholin-4-yl-ethoxy)-pyrimidin-4-yl]-3-(4-p-tolyl-thiazol-2-yl)-urea] | ≤ 6.00 |
| O=C(Nc1cc(OCCN2CCOCC2)nc(N2CCOCC2)n1)Nc1cc(-c2ccco2)n[nH]1 [Compound 144, 1-(5-Furan-2-yl-2H-pyrazol-3-yl)-3-[2-morpholin-4-yl-6-(2-morpholin-4-yl-ethoxy)-pyrimidin-4-yl]-urea] | ≤ 6.00 |
| Cc1c(C)n(C)c2ccc(NC(=O)c3cc(OCCN4CCOCC4)cc(N4CCOCC4)n3)cc12 [Compound 146, 6-Morpholin-4-yl-4-(2-morpholin-4-yl-ethoxy)-pyridine-2-carboxylic acid (1,2,3-trimethyl-1H-indol-5-yl)-amide] | > 6.00 |
| Cc1c(C)n(C)c2ccc(NC(=O)c3cc(N4CCOCC4)cc(N4CCOCC4)n3)cc12 [Compound 147, 4,6-Di-morpholin-4-yl-pyridine-2-carboxylic acid (1,2,3-trimethyl-1H-indol-5-yl)-amide] | > 6.00 |
| O=C(Nc1ccnc(Cl)c1)c1cc(OCCN2CCOCC2)nc(N2CCOCC2)n1 [Compound 149, 2-Morpholin-4-yl-6-(2-morpholin-4-yl-ethoxy)-pyrimidine-4-carboxylic acid (2-chloro-pyridin-4-yl)-amide] | ≤ 6.00 |
| NC(=O)c1ccc(NC(=O)c2cc(OCCN3CCOCC3)nc(N3CCOCC3)n2)nc1 [Compound 150, 2-Morpholin-4-yl-6-(2-morpholin-4-yl-ethoxy)-pyrimidine-4-carboxylic acid (5-carbamoyl-pyridin-2-yl)-amide] | > 6.00 |
| O=C(Nc1ccnc(N2CCCC2)c1)c1cc(OCCN2CCOCC2)nc(N2CCOCC2)n1 [Compound 151, 2-Morpholin-4-yl-6-(2-morpholin-4-yl-ethoxy)-pyrimidine-4-carboxylic acid (2-pyrrolidin-1-yl-pyridin-4-yl)-amide] | > 6.00 |
| CC(=O)c1cccc(NC(=O)c2cc(OCCN3CCOCC3)nc(N3CCOCC3)n2)c1 [Compound 152, 2-Morpholin-4-yl-6-(2-morpholin-4-yl-ethoxy)-pyrimidine-4-carboxylic acid (3-acetyl-phenyl)-amide] | ≤ 6.00 |
| C/C(=N\N(C)C)c1cccc(NC(=O)c2cc(OCCN3CCOCC3)nc(N3CCOCC3)n2)c1 [Compound 153, (E)-N-(3-(1-(2,2-dimethylhydrazono)ethyl)phenyl)-2-morpholino-6-(2-morpholinoethoxy)pyrimidine-4-carboxamide] | > 6.00 |
| CO/N=C(\C)c1cccc(NC(=O)c2cc(OCCN3CCOCC3)nc(N3CCOCC3)n2)c1 [Compound 154, (E)-N-(3-(1-(methoxyimino)ethyl)phenyl)-2-morpholino-6-(2-morpholinoethoxy)pyrimidine-4-carboxamide] | > 6.00 |

Further lines, results first:

| pIC50 | SMILES |
| --- | --- |
| > 6.00 | O=C(Nc1cccc(Br)c1)Nc1cc(N2CCOCC2)nc(OCCN2CCOCC2)n1 [Compound 118] |
| ≤ 6.00 | O=C(Nc1ccc(Cl)c(Cl)c1)Nc1cc(N2CCOCC2)nc(OCCN2CCOCC2)n1 [Compound 119, 1-(3,4-Dichloro-phenyl)-3-[6-morpholin-4-yl-2-(2-morpholin-4-yl-ethoxy)-pyrimidin-4-yl]-urea] |
| ≤ 6.00 | O=C(Nc1ccc2c(c1)CCC2)Nc1cc(N2CCOCC2)nc(OCCN2CCOCC2)n1 [Compound 120, 1-Indan-5-yl-3-[6-morpholin-4-yl-2-(2-morpholin-4-yl-ethoxy)-pyrimidin-4-yl]-urea] |
| > 6.00 | O=C(Nc1cccc(C(F)(F)F)c1)Nc1cc(N2CCOCC2)nc(OCCN2CCOCC2)n1 [Compound 121, 1-[6-Morpholin-4-yl-2-(2-morpholin-4-yl-ethoxy)-pyrimidin-4-yl]-3-(3-trifluoromethyl-phenyl)-urea] |
| ≤ 6.00 | Cc1ccc(NC(=O)Nc2cc(N3CCOCC3)nc(OCCN3CCOCC3)n2)cc1C [Compound 122, 1-(3,4-Dimethyl-phenyl)-3-[6-morpholin-4-yl-2-(2-morpholin-4-yl-ethoxy)-pyrimidin-4-yl]-urea] |
| ≤ 6.00 | O=C(Nc1ccc2c(c1)OCO2)Nc1cc(N2CCOCC2)nc(OCCN2CCOCC2)n1 [Compound 123, 1-Benzo[1,3]dioxol-5-yl-3-[6-morpholin-4-yl-2-(2-morpholin-4-yl-ethoxy)-pyrimidin-4-yl]-urea] |
| ≤ 6.00 | O=C(Nc1ccc2ccccc2c1)Nc1cc(N2CCOCC2)nc(OCCN2CCOCC2)n1 [Compound 124, 1-[6-Morpholin-4-yl-2-(2-morpholin-4-yl-ethoxy)-pyrimidin-4-yl]-3-naphthalen-2-yl-urea] |
| > 6.00 | O=C(Nc1cccc(F)c1)Nc1cc(OCCN2CCOCC2)nc(N2CCOCC2)n1 [Compound 125, 1-(3-Fluoro-phenyl)-3-[2-morpholin-4-yl-6-(2-morpholin-4-yl-ethoxy)-pyrimidin-4-yl]-urea] |
| > 6.00 | O=C(Nc1cccc(Cl)c1)Nc1cc(OCCN2CCOCC2)nc(N2CCOCC2)n1 [Compound 126, 1-(3-Chloro-phenyl)-3-[2-morpholin-4-yl-6-(2-morpholin-4-yl-ethoxy)-pyrimidin-4-yl]-urea] |
| > 6.00 | N#Cc1cccc(NC(=O)Nc2cc(OCCN3CCOCC3)nc(N3CCOCC3)n2)c1 [Compound 127, 1-(3-Cyano-phenyl)-3-[2-morpholin-4-yl-6-(2-morpholin-4-yl-ethoxy)-pyrimidin-4-yl]-urea] |
| ≤ 6.00 | O=C(Nc1cccc([N+](=O)[O-])c1)Nc1cc(OCCN2CCOCC2)nc(N2CCOCC2)n1 [Compound 128, 1-[2-Morpholin-4-yl-6-(2-morpholin-4-yl-ethoxy)-pyrimidin-4-yl]-3-(3-nitro-phenyl)-urea] |
| ≤ 6.00 | O=C(Nc1cc(OCCN2CCOCC2)nc(N2CCOCC2)n1)Nc1ccccc1Br [Compound 129, 1-(2-Bromo-phenyl)-3-[2-morpholin-4-yl-6-(2-morpholin-4-yl-ethoxy)-pyrimidin-4-yl]-urea] |
| > 6.00 | O=C(Nc1cccc(I)c1)Nc1cc(OCCN2CCOCC2)nc(N2CCOCC2)n1 [Compound 130, 1-(3-Iodo-phenyl)-3-[2-morpholin-4-yl-6-(2-morpholin-4-yl-ethoxy)-pyrimidin-4-yl]-urea] |
| > 6.00 | CCc1cccc(NC(=O)Nc2cc(OCCN3CCOCC3)nc(N3CCOCC3)n2)c1 [Compound 131, 1-(3-Ethyl-phenyl)-3-[2-morpholin-4-yl-6-(2-morpholin-4-yl-ethoxy)-pyrimidin-4-yl]-urea] |
| > 6.00 | O=C(Nc1cc(OCCN2CCOCC2)nc(N2CCOCC2)n1)Nc1ccccc1Cl [Compound 132, 1-(2-Chloro-phenyl)-3-[2-morpholin-4-yl-6-(2-morpholin-4-yl-ethoxy)-pyrimidin-4-yl]-urea] |
| ≤ 6.00 | Cn1c(=O)sc2cc(NC(=O)Nc3cc(OCCN4CCOCC4)nc(N4CCOCC4)n3)ccc21 [Compound 133, 1-(3-Methyl-2-oxo-2,3-dihydro-benzothiazol-6-yl)-3-[2-morpholin-4-yl-6-(2-morpholin-4-yl-ethoxy)-pyrimidin-4-yl]-urea] |
| ≤ 6.00 | Cn1c(=O)oc2cc(NC(=O)Nc3cc(OCCN4CCOCC4)nc(N4CCOCC4)n3)ccc21 [Compound 134, 1-(3-Methyl-2-oxo-2,3-dihydro-benzooxazol-6-yl)-3-[2-morpholin-4-yl-6-(2-morpholin-4-yl-ethoxy)-pyrimidin-4-yl]-urea] |
| > 6.00 | Cc1ccc2cc(NC(=O)Nc3cc(OCCN4CCOCC4)nc(N4CCOCC4)n3)ccc2n1 [Compound 136, 1-(2-Methyl-quinolin-6-yl)-3-[2-morpholin-4-yl-6-(2-morpholin-4-yl-ethoxy)-pyrimidin-4-yl]-urea] |
| > 6.00 | O=C(Nc1ccc2[nH]ccc2c1)Nc1cc(OCCN2CCOCC2)nc(N2CCOCC2)n1 [Compound 137, 1-(1H-Indol-5-yl)-3-[2-morpholin-4-yl-6-(2-morpholin-4-yl-ethoxy)-pyrimidin-4-yl]-urea] |
| ≤ 6.00 | O=C(Nc1cc(OCCN2CCOCC2)nc(N2CCOCC2)n1)Nc1cccc2c(O)cccc12 [Compound 138, 1-(5-Hydroxy-naphthalen-1-yl)-3-[2-morpholin-4-yl-6-(2-morpholin-4-yl-ethoxy)-pyrimidin-4-yl]-urea] |
| > 6.00 | O=C(Nc1ccc(O)cc1)Nc1cc(OCCN2CCOCC2)nc(N2CCOCC2)n1 [Compound 143, 1-(4-Hydroxy-phenyl)-3-[2-morpholin-4-yl-6-(2-morpholin-4-yl-ethoxy)-pyrimidin-4-yl]-urea] |
| > 6.00 | CN(C)c1cccc(NC(=O)c2cc(OCCN3CCOCC3)cc(N3CCOCC3)n2)c1 [Compound 155, 6-Morpholin-4-yl-4-(2-morpholin-4-yl-ethoxy)-pyridine-2-carboxylic acid (3-dimethylamino-phenyl)-amide] |
